From patent US7109243B2 (IRM LLC, priority 2003, dated 2006)
Where two headings read alike, the source gives them in different places.

Experiments:
[1] = biological target: Cathepsin S (Homo sapiens, UniProt P25774); experiment: Cathepsin S inhibition assay (fluorogenic peptide substrate); format: biochemical
In short: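 Ki values come from nonlinear fitting of inhibited hydrolysis rates, taking free and total inhibitor concentrations as equal. Rates measured as rising fluorescence at 380/450 nm after reaction start with 50 μM final acetyl-HPVK-aminocarbamoylcoumarin.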

[2] = biological target: T1, Cathepsin K (Homo sapiens, UniProt P43235); experiment: Cathepsin K inhibition assay (fluorogenic peptide substrate); selectivity ratio vs cathepsin S; format: biochemical
T1 sequence (P43235 115-329): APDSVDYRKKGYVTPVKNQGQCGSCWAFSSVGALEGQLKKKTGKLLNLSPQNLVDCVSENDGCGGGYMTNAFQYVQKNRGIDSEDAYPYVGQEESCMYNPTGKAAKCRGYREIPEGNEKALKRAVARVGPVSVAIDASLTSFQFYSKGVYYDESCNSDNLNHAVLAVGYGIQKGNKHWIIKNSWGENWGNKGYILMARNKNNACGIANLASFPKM
In short: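 Fluorogenic kinetic assay, started with acetyl-Lys-His-Pro-Lys-aminocarbamoylcoumarin at 40 μM final, hydrolysis followed at ex 380/em 450 nm. Apparent inhibition constants from progress curves, converted to competitive inhibition constants. Selectivity expressed as isozyme inhibition constant divided by cathepsin S inhibition constant.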

[3] = Table II, compounds of Formula I, read-out: Ki Cat. S
[4] = ratio of cathepsin K inhibition constant to cathepsin S inhibition constant, Table II

Sequence of Cathepsin S (P25774 115-331, species assumed): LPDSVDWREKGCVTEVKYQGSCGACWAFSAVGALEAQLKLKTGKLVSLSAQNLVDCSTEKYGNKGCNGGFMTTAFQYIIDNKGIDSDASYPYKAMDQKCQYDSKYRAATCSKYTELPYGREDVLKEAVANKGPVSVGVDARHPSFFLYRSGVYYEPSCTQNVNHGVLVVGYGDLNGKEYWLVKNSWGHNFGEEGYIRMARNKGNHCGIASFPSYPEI

Row | SMILES | Ki [1, 3] | Selectivity for Cat. S over Cat. K [2, 4] | Ki ([1]; comparison compounds in the art, read-out: Ki (CatS)) | Selectivity for Cat. S over Cat. K ([2]; comparison compounds in the art, ratio Ki CatK / Ki CatS) | Ki ([2]; comparison compounds in the art, read-out: Ki (CatK))
1 | COc1ccc(NCCNC(=O)[C@H](CCC2CCCCC2)NC(=O)c2ccc(N3CCOCC3)cc2)cc1 [Compound 127, (S)-N-{3-Cyclohexyl-1-[2-(4-methoxy-phenylamino)-ethylcarbamoyl]-propyl}-4-morpholin-4-yl-benzamide] | < 1000 nM | ++ (++, >100) |  |  | 
2 | CC(C(=O)N[C@@H](CC1CCCCC1)C(=O)NCCNc1ccc(F)cc1)c1ccc(O)cc1 (stereo partly drawn) [Compound 311, N-{2-cyclohexyl-1-(S)-[2-(4-fluoro-phenylamino)-ethylcarbamoyl]-ethyl}-2-(4-hydroxy-phenyl)-propionamide] | < 100 nM | + (+, >10) |  |  | 
3 | COc1ccc(NCCNC(=O)[C@H](CC2CCCCC2)NC(=O)c2ccc3ncsc3c2)cc1 [Compound 186, (S)-Benzothiazole-6-carboxylic acid {2-cyclohexyl-1-[2-(4-methoxy-phenylamino)-ethylcarbamoyl]-ethyl}-amide] | < 100 nM | ++ (++, >100) |  |  | 
4 | COc1ccc(NCCNC(=O)[C@H](CCC2CCCCC2)NC(=O)c2cccc(-c3csc(C)n3)c2)cc1 [Compound 142, (S)-N-{3-Cyclohexyl-1-[2-(4-methoxy-phenylamino)-ethylcarbamoyl]-propyl}-3-(2-methyl-thiazol-4-yl)-benzamide] | < 100 nM | +++ (+++, >1000) |  |  | 
5 | C[C@H](C(=O)N[C@@H](CC1CCCCC1)C(=O)NCCNc1ccc(F)cc1)c1ccccc1 [Compound 294, N-(S)-{2-cyclohexyl-1-[2-(4-fluoro-phenylamino)-ethylcarbamoyl]-ethyl}-2-(S)-phenyl-propionamide] | < 100 nM | ++ (++, >100) |  |  | 
6 | CS(=O)(=O)c1ccc(CC(=O)N[C@@H](CC2CCCCC2)C(=O)NCCNc2ccc(F)cc2)cc1 [Compound 326, 3-Cyclohexyl-N-[2-(4-fluoro-phenylamino)-ethyl]-2-(S)-[2-(4-methanesulfonyl-phenyl)-acetylamino]-propionamide] | < 1000 nM | ++ (++, >100) |  |  | 
7 | COc1ccc(NCCNC(=O)[C@H](CC2CCCCC2)NC(=O)c2sc(-c3ccc(C(F)(F)F)cc3)nc2C)cc1 [Compound 188, (S)-4-Methyl-2-(4-trifluoromethyl-phenyl)-thiazole-5-carboxylic acid {2-cyclohexyl-1-[2-(4-methoxy-phenylamino)-ethylcarbamoyl]-ethyl}-amide] | < 100 nM | +++ (+++, >1000) |  |  | 
8 | C[C@@H](C(=O)N[C@@H](CCC1CCCCC1)C(=O)NCCNc1ccc(OC(F)(F)F)cc1)c1ccccc1 [Compound 13, 4-Cyclohexyl-2-(S)-(2-(R)-phenyl-propionylamino)-N-[2-(4-trifluoromethoxy-phenylamino)-ethyl]-butyramide] | < 100 nM | +++ (+++, >1000) |  |  | 
9 | O=C(N[C@@H](CC1CCCCC1)C(=O)NCCNc1ccc(F)cc1)c1cscn1 [Compound 314, Thiazole-4-carboxylic acid (S)-{2-cyclohexyl-1-[2-(4-fluoro-phenylamino)-ethylcarbamoyl]-ethyl}-amide] | < 100 nM | + (+, >10) |  |  | 
10 | COc1ccc(NCCNC(=O)[C@H](Cc2ccccc2)NC(=O)CC2C=CCC2)cc1 (stereo partly drawn) [Compound 82, (S)-2-(2-Cyclopent-2-enyl-acetylamino)-N-[2-(4-methoxy-phenylamino)-ethyl]-3-phenyl-propionamide] | < 1000 nM | + (+, >10) |  |  | 
11 | Cc1cccc(-c2ccc(C(=O)N[C@@H](CC3CCCCC3)C(=O)NCCNc3ccc(OC(F)(F)F)cc3)s2)c1 [Compound 47, 5-m-Tolyl-thiophene-2-carboxylic acid (S)-{2-cyclohexyl-1-[2-(4-trifluoromethoxy-phenylamino)-ethylcarbamoyl]-ethyl}-amide] | < 100 nM | +++ (+++, >1000) |  |  | 
12 | COc1ccc(NCCNC(=O)[C@H](CCC2CCCCC2)NC(=O)c2cc3cc(Cl)ccc3[nH]2)cc1 [Compound 131, (S)-5-Chloro-1H-indole-2-carboxylic acid {3-cyclohexyl-1-[2-(4-methoxy-phenylamino)-ethylcarbamoyl]-propyl}-amide] | < 10000 nM | + (+, >10) |  |  | 
13 | CC[C@@H](C(=O)N[C@@H](CC1CCCCC1)C(=O)NCCNc1ccc(F)cc1)c1ccccc1 [Compound 318, N-{2-cyclohexyl-1-(S)-[2-(4-fluoro-phenylamino)-ethylcarbamoyl]-ethyl}-2-(R)-phenyl-butyramide] | < 100 nM | + (+, >10) |  |  | 
14 | O=C(NCCNc1ccc(OC(F)(F)F)cc1)[C@H](CC1CCCCC1)NC(=O)[C@@H](O)c1ccccc1 [Compound 58, 3-Cyclohexyl-2-(S)-(2-(S)-hydroxy-2-phenyl-acetylamino)-N-[2-(4-trifluoromethoxy-phenylamino)-ethyl]-propionamide] | < 100 nM | ++ (++, >100) |  |  | 
15 | O=C(Cn1cnnn1)N[C@@H](CC1CCCCC1)C(=O)NCCNc1ccc(F)cc1 [Compound 265, 3-Cyclohexyl-N-[2-(4-fluoro-phenylamino)-ethyl]-2-(S)-(2-tetrazol-1-yl-acetylamino)-propionamide] | < 1000 nM | ++ (++, >100) |  |  | 
16 | O=C(N[C@@H](CC1CCCCC1)C(=O)NCCNc1ccc(OC(F)F)cc1)c1ccc(-c2cccc(C(F)(F)F)c2)o1 [Compound 10, N-((S)-1-(2-(4-(difluoromethoxy)phenylamino)ethylcarbamoyl)-2-cyclohexylethyl)-5-(3-(trifluoromethyl)phenyl)furan-2-carboxamide] | < 100 nM | +++ (+++, >1000) |  |  | 
17 | COc1ccc(NCCNC(=O)[C@H](CC2CCCCC2)NC(=O)C2(c3ccccc3)CC2)cc1 [Compound 158, (S)-1-Phenyl-cyclopropanecarboxylic acid {2-cyclohexyl-1-[2-(4-methoxy-phenylamino)-ethylcarbamoyl]-ethyl}-amide] | < 100 nM | ++ (++, >100) |  |  | 

Results, then the compound that gave them:

Row | Ki [1, 3] | Selectivity for Cat. S over Cat. K [2, 4] | Ki ([1]; comparison compounds in the art, read-out: Ki (CatS)) | Selectivity for Cat. S over Cat. K ([2]; comparison compounds in the art, ratio Ki CatK / Ki CatS) | Ki ([2]; comparison compounds in the art, read-out: Ki (CatK)) | SMILES
18 | < 100 nM | +++ (+++, >1000) |  |  |  | COc1ccc(NCCNC(=O)[C@H](Cc2cc(F)cc(F)c2)NC(=O)c2cccc(C)c2)cc1 [Compound 230, (S)-N-{2-(3,5-Difluoro-phenyl)-1-[2-(4-methoxy-phenylamino)-ethylcarbamoyl]-ethyl}-3-methyl-benzamide]
19 | < 100 nM | ++ (++, >100) |  |  |  | COc1ccc(NCCNC(=O)[C@H](Cc2ccc(-c3ccncc3)cc2)NC(=O)c2cccc(C)c2)cc1 [Compound 277, (S)-N-[1-[2-(4-Methoxy-phenylamino)-ethylcarbamoyl]-2-(4-pyridin-4-yl-phenyl)-ethyl]-3-methyl-benzamide]
20 | < 1000 nM | ++ (++, >100) |  |  |  | COc1ccc(NCCNC(=O)[C@H](Cc2ccc(-c3ccccc3C(C)=O)cc2)NC(=O)c2cccc(C)c2)cc1 [Compound 288, (S)-N-{2-(2′-Acetyl-biphenyl-4-yl)-1-[2-(4-methoxy-phenylamino)-ethylcarbamoyl]-ethyl}-3-methyl-benzamide]
21 | < 10000 nM | + (+, >10) |  |  |  | COc1ccc(NCCNC(=O)[C@H](CCC2CCCCC2)NC(=O)c2ccc(-c3ccccc3)cc2)cc1 [Compound 130, (S)-Biphenyl-4-carboxylic acid {3-cyclohexyl-1-[2-(4-methoxy-phenylamino)-ethylcarbamoyl]-propyl}-amide]
22 | < 10000 nM | + (+, >10) |  |  |  | COc1ccc(NCCNC(=O)[C@H](CC2CCCCC2)NC(=O)c2ccc(-c3ccc(Cl)cc3)cc2)cc1 [Compound 170, (S)-4′-Chloro-biphenyl-4-carboxylic acid {2-cyclohexyl-1-[2-(4-methoxy-phenylamino)-ethylcarbamoyl]-ethyl}-amide]
23 |  |  | < 100 nM | <10 | < 100 nM | COc1ccc(NCCNC(=O)[C@@H](CC(C)C)NC(=O)c2ccc(-c3ccccc3)cc2)cc1 [reference compound]
24 | < 1000 nM | ++ (++, >100) |  |  |  | COc1ccc(NCCNC(=O)C(NC(=O)c2cccc(C)c2)c2ccc(C)cc2C)cc1 (stereo not shown) [Compound 224, N-{(2,4-Dimethyl-phenyl)-[2-(4-methoxy-phenylamino)-ethylcarbamoyl]-methyl}-3-methyl-benzamide]
25 | < 100 nM | +++ (+++, >1000) |  |  |  | COc1ccc(NCCNC(=O)[C@H](Cc2ccc(I)cc2)NC(=O)c2cccc(C)c2)cc1 [Compound 242, (S)-N-{2-(4-Iodo-phenyl)-1-[2-(4-methoxy-phenylamino)-ethylcarbamoyl]-ethyl}-3-methyl-benzamide]
26 | < 100 nM | +++ (+++, >1000) |  |  |  | COc1ccc(NCCNC(=O)[C@H](Cc2ccc(Cl)c(Cl)c2)NC(=O)c2cccc(C)c2)cc1 [Compound 231, (S)-N-{2-(3,4-Dichloro-phenyl)-1-[2-(4-methoxy-phenylamino)-ethylcarbamoyl]-ethyl}-3-methyl-benzamide]
27 | < 1000 nM | ++ (++, >100) |  |  |  | COc1ccc(NCCNC(=O)[C@H](Cc2ccc(-c3cc(F)ccc3OC)cc2)NC(=O)c2cccc(C)c2)cc1 [Compound 283, (S)-N-{2-(5′-Fluoro-2′-methoxy-biphenyl-4-yl)-1-[2-(4-methoxy-phenylamino)-ethylcarbamoyl]-ethyl}-3-methyl-benzamide]
